Reference: patent US4419447A, “Fermentation process for producing demycinosyltylosin” (Eli Lilly and Company, priority 1981, dated 1983)
Values after ≈ are worked out from the molar mass of the structure shown. Structures can show the parent of a compound that is named as a salt. Where two headings read alike, the source gives them in different places.

How the values were obtained:
Mycoplasma gallisepticum [1] = assay: Treatment of induced Mycoplasma gallisepticum infection in chicks with DMT base; type: in vivo; settings: infected control 304
Method: (§1) Activity against Mycoplasma species is an especially useful aspect of the DMT compounds. Tables 10 and 11 summarize experiments using DMT and DMT tartrate for the treatment of induced Mycoplasma gallisepticum infections in chickens. The compounds were administered in the drinking water (at 1 and 2 grams per gallon for 1 to 3 days) or by injection at 15 or 30 mg/kg of body weight.

[2] = tested on: Streptococcus pyogenes C203; assay: Experimental infection in mice; type: in vivo; settings: two doses
physchem = type: physicochemical; settings: 66% aqueous dimethylformamide
[3] = tested on: Streptococcus pneumoniae Park I; assay: Experimental infection in mice; type: in vivo
[4] = type: physicochemical
Text: DMT base is soluble in water and in most polar organic solvents, such as acetone, methanol, ethanol, chloroform, dimethylformamide and dimethyl sulfoxide. DMT acid addition salts are more soluble in water than is DMT base.

[5] = tested on: Staphylococcus aureus 3055; assay: Experimental infection in mice; type: in vivo; settings: two doses
[6] = tested on: Streptococcus pyogenes C203; assay: In vitro activity, standard agar-dilution assay; type: cell-based
Text: (§2) Table 8 summarizes the minimal inhibitory concentrations (MIC), as measured by standard agar-dilution assays, at which DMT (free base) inhibits certain bacteria.

[7] = tested on: Streptococcus pneumoniae Park I; assay: In vitro activity, standard agar-dilution assay; type: cell-based
Text: as §2

Pasteurella multocida = assay: In vitro activity, standard agar-dilution assay; type: cell-based
Text: as §2

Mycoplasma hyorhinis = assay: In vitro activity, standard agar-dilution assay; type: cell-based
Text: as §2

Pasteurella hemolytica = assay: In vitro activity, standard agar-dilution assay; type: cell-based
Text: as §2

Mycoplasma hyopneumoniae = assay: In vitro activity, standard agar-dilution assay; type: cell-based; settings: Mesomycoplasma hyopneumoniae
Text: as §2

[8] = tested on: Staphylococcus aureus 3055; assay: In vitro activity, standard agar-dilution assay; type: cell-based
Text: as §2

[9] = tested on: Streptococcus sp. (Group D) 282; assay: In vitro activity, standard agar-dilution assay; type: cell-based
Text: as §2

Mycoplasma gallisepticum [10] = assay: In vitro activity, standard agar-dilution assay; type: cell-based; settings: Mycoplasmoides gallisepticum
Text: as §2

[11] = tested on: Staphylococcus aureus 209P; assay: In vitro activity, standard agar-dilution assay; type: cell-based
Text: as §2

[12] = tested on: gram-positive microorganisms and Mycoplasma species; assay: Inhibition of growth of pathogenic bacteria (general statement); type: cell-based
Text: as §2

[13] = Acute toxicity of DMT in mice; settings: mouse, in vivo
Text: In these studies, 4- to 5-week-old Harlan ICR mice were used. […]

[14] = tested on: Streptomyces fradiae NRRL 12170; assay: Antibiotic sensitivity of S. fradiae NRRL 12170 (sensitivity discs on seeded agar plates); type: cell-based
Text: (§3) ^a Determined by using sensitivity discs padded onto seededagar

[15] = tested on: Streptomyces fradiae E2724.1; assay: Antibiotic sensitivity of S. fradiae E2724.1 (sensitivity discs on seeded agar plates); type: cell-based
Text: as §3

Mycoplasma gallisepticum [16] = assay: Treatment of induced Mycoplasma gallisepticum infection in chicks with DMT tartrate; type: in vivo; settings: infected control 231
Method: as §1

[17] = 1.0 g/gal, 1-3 days, drinking water
[18] = 2.0 g/gal, 1-3 days, drinking water

With CCC1OC(=O)CC(O)C(C)C(OC2OC(C)C(OC3CC(C)(O)C(O)C(C)O3)C(N(C)C)C2O)C(CC=O)CC(C)C(=O)C=CC(C)=CC1CO (stereo not shown) [DMT, 23-demycinosyltylosin] as the compound, how does the “Avg. Wt.” value (Mycoplasma gallisepticum [1]; 15 mg/kg, injection) read?
The value was 453 g.

And the “Avg. Wt.” value (Mycoplasma gallisepticum [1]; [17])?
Its value is 392 g.

And the “Avg. Wt.” value (Mycoplasma gallisepticum [1]; [18])?
Its value is 397 g.

And the ED50 ([2]; Streptococcus pyogenes, C203, po, oral, challenge 11.3 × LD50, read-out: ED50)?
Its ED50 is 218 mg/kg.

What about the ED50 ([2]; Streptococcus pyogenes, C203, sc, subcutaneous, challenge 13 × LD50, read-out: ED50) of the same compound?
The ED50 was 2.2 mg/kg.

What about the pKa (physchem) of the same compound?
The pKa was ~7.25.

And the ED50 ([3]; po, two doses, challenge 2.7 × LD50)?
The ED50 was 66 mg/kg.

What about the ED50 ([3]; sc, subcutaneous, two doses, challenge 3 × LD50) of the same compound?
Its ED50 is 15.7 mg/kg.

What about the “solubility in most polar organic solvents” value [4] of the same compound?
Its value is “soluble”.

What about the solubility in water [4] of the same compound?
The solubility in water was “soluble”.

And the ED50 ([5]; Staphylococcus aureus, 3055, sc, subcutaneous, challenge 21 × LD50)?
The ED50 was 2.7 mg/kg.

And the ED50 ([5]; Staphylococcus aureus, 3055, oral, challenge 26 × LD50)?
Its ED50 is 64 mg/kg.

What about the MIC [6] of the same compound?
Its MIC is 0.25 µg/mL (≈ 0.337 µM).

And the MIC [7]?
The MIC was 0.13 µg/mL (≈ 0.175 µM).

And the MIC (Pasteurella multocida)?
Its MIC is 3.12 µg/mL (≈ 4.21 µM).

What about the MIC (Mycoplasma hyorhinis) of the same compound?
Its MIC is 0.78 µg/mL (≈ 1.05 µM).

And the MIC (Pasteurella hemolytica)?
Its MIC is 12.5 µg/mL (≈ 16.8 µM).

And the MIC (Mycoplasma hyopneumoniae)?
The MIC was 0.195 µg/mL (≈ 0.263 µM).

And the MIC [8]?
Its MIC is 1 µg/mL (≈ 1.35 µM).

What about the MIC [9] of the same compound?
The MIC was 0.5 µg/mL (≈ 0.674 µM).

What about the MIC (Mycoplasma gallisepticum [10]) of the same compound?
Its MIC is 0.097 µg/mL (≈ 0.131 µM).

And the MIC [11]?
Its MIC is 0.25 µg/mL (≈ 0.337 µM).

What about the “inhibition of growth of pathogenic organisms” value [12] of the same compound?
The value was “especially active against gram-positive microorganisms and Mycoplasma species”.

What about the LD50 ([13]; ip, females) of the same compound?
Its LD50 is 325 mg/kg.

What about the LD50 ([13]; ip, males) of the same compound?
The LD50 was 721 mg/kg.

What about the LD50 ([13]; iv, females) of the same compound?
The LD50 was 186 mg/kg.

What about the LD50 ([13]; iv, males) of the same compound?
The LD50 was 100 mg/kg.

And the LD50 ([13]; po, females)?
The LD50 was > 5000 mg/kg.

And the LD50 ([13]; sc, females)?
The LD50 was 5450 mg/kg.

For CCC1OC(=O)CC(O)C(C)C(OC2OC(C)C(OC3CC(C)(O)C(O)C(C)O3)C(N(C)C)C2O)C(CCO)CC(C)C(=O)C=CC(C)=CC1CO (stereo not shown) [dihydro-DMT, 20-dihydro-23-demycinosyltylosin], which “inhibition of growth of pathogenic organisms” value [12] is on record?
The value was “especially active against gram-positive microorganisms and Mycoplasma species”.

For O=C(Cc1cccs1)N[C@@H]1C(=O)N2C(C(=O)[O-])=C(C[n+]3ccccc3)CS[C@H]12 [Cephaloridine], which “Antibiotic Sensitivity” value ([14]; disc conc. 30 μg) is on record?
Its value is “+”.

And the “Antibiotic Sensitivity” value ([15]; disc conc. 30 μg)?
The value was “+”.

For CCC[C@@H]1C[C@@H](C(=O)N[C@@H]([C@H]2O[C@H](SC)[C@H](O)[C@@H](O)[C@H]2O)[C@@H](C)O)N(C)C1 [Lincomycin], which “Antibiotic Sensitivity” value ([14]; disc conc. 2 μg) is on record?
The value was “-”.

What about the “Antibiotic Sensitivity” value ([15]; disc conc. 2 μg) of the same compound?
Its value is “-”.

For CN[C@H](CC(C)C)C(=O)N[C@H]1C(=O)N[C@@H](CC(N)=O)C(=O)N[C@H]2C(=O)N[C@H]3C(=O)N[C@H](C(=O)N[C@H](C(=O)O)c4cc(O)cc(O)c4-c4cc3ccc4O)[C@H](O)c3ccc(c(Cl)c3)Oc3cc2cc(c3O[C@@H]2O[C@H](CO)[C@@H](O)[C@H](O)[C@H]2O[C@H]2C[C@](C)(N)[C@H](O)[C@H](C)O2)Oc2ccc(cc2Cl)[C@H]1O [Vancomycin], which “Antibiotic Sensitivity” value ([14]; disc conc. 30 μg) is on record?
Its value is “+”.

What about the “Antibiotic Sensitivity” value ([15]; disc conc. 30 μg) of the same compound?
Its value is “+”.

For CN(C)[C@@H]1C(O)=C(C(N)=O)C(=O)[C@@]2(O)C(O)=C3C(=O)c4c(O)cccc4[C@@](C)(O)[C@H]3C[C@@H]12 [Tetracycline], which “Antibiotic Sensitivity” value ([14]; disc conc. 30 μg) is on record?
Its value is “+”.

What about the “Antibiotic Sensitivity” value ([15]; disc conc. 30 μg) of the same compound?
Its value is “+”.

What does the source list for CCC1OC(=O)CC(O)C(C)C(OC2OC(C)C(OC3CC(C)(O)C(O)C(C)O3)C(N(C)C)C2O)C(CC=O)CC(C)C(=O)C=CC(C)=CC1CO (stereo not shown) [DMT Tartrate]?
Avg. Wt. (Mycoplasma gallisepticum [16]; 30 mg/kg, injection): 330 g; Avg. Wt. (Mycoplasma gallisepticum [16]; [17]): 354 g; Avg. Wt. (Mycoplasma gallisepticum [16]; [18]): 458 g; ED50 ([2]; oral, challenge 11.3 × LD50): 172 mg/kg × 2; ED50 ([2]; subcutaneous, challenge 13 × LD50): 2.3 mg/kg × 2; ED50 ([3]; po): 100 mg/kg; ED50 ([3]; sc): ≤ 9.9 mg/kg

With O=C(N[C@H](CO)[C@H](O)c1ccc([N+](=O)[O-])cc1)C(Cl)Cl [Chloramphenicol] as the compound, how does the “Antibiotic Sensitivity” value ([14]; disc conc. 30 μg) read?
Its value is “+”.

What about the “Antibiotic Sensitivity” value ([15]; disc conc. 30 μg) of the same compound?
Its value is “+”.

For [H]/N=C(/N)N[C@H]1[C@H](O)[C@@H](O)[C@H](O[C@@H]2O[C@@H](C)[C@](O)(C=O)[C@H]2O[C@@H]2O[C@@H](CO)[C@H](O)[C@@H](O)[C@@H]2NC)[C@@H](N/C(N)=N\[H])[C@@H]1O [Streptomycin], which “Antibiotic Sensitivity” value ([14]; disc conc. 10 μg) is on record?
The value was “+”.

And the “Antibiotic Sensitivity” value ([15]; disc conc. 10 μg)?
The value was “+”.
